What was measured:
interleukin-1 (IL-1) = assay: IL-1 activity of LPS-induced peritoneal macrophages of adjuvant arthritis rats (thymocyte bioassay); assay type: in vivo, rat; conditions: AA rats, 5 mg; 570 nm; model group 0.87 ± 0.03
Experimental: Fizzer complete adjuvant (from Sigma Co.) was emulsified and injected subcutaneously and sterilely 0.1 ml into the right meta voix pedis of each rat (♂, 160±20 g) to establish a model of adjuvant-induced arthritis.
Preparation of peritoneal macrophage: Execute rats at 25th days after injecting complete adjuvant, then rapidly inject proper amount of Hank's solution into the belly of them, and rub their abdominal wall several times before collecting peritoneal fluid. Wash it with Hank's solution containing 5% calf serum twice, then prepare 1×10^6/mL cell suspension with wholly swelling RPMI1640. Transfer into a culture plate with 24 wells, 1 ml each well. Incubate them in a 5% CO2 incubator overnight at a temperature of 37° C., abandon the supernatant fluid, wash with pre-warmed Hank's solution containing 5% calf serum at 37° C. twice, and remove un-adherent cell. The residue was peritoneal macrophage.
2. IL-1 induction: Add 10 μg/mL lipopolysaccharide (LPS) to the above culture plate with 24 wells, then incubate for 24 hours, centrifuge (2000 rpm, 5 min), collect the […], and filter with micropore filter. This solution was the IL-1 sample to be detected. 3. […]

[1] = system: DTH T cell subsets (L3T4+, Lyt-2+); assay: DTH T cell subsets of mouse (DNFB, splenic lymphocytes, immunofluorescence); conditions: 5 mg

C[C@]12C=CC(=O)C=C1CC[C@@H]1[C@@H]2C(=O)C[C@@]2(C)[C@H]1CC[C@]2(O)C(=O)CO [Prednisone]
OD Value (IL-1 activity) (interleukin-1 (IL-1)): 0.34 ± 0.02 | Cells number L3T4^+ [1]: 59.6 ± 7.5% | Cells number Lyt-2^+ [1]: 56.2 ± 3.8 % | L3T4^+/Lyt-2^+ [1]: 1.21 ± 0.14

— patent US7662412B2, “Traditional Chinese medicine composition to treat rheumatoid arthritis and preparation method thereof” (priority 2005, dated 2010)
